IC50 data for 8 molecules are collected here from patent publication US12281122B1, “PI3K inhibitors” (Cogent Biosciences, Inc., priority 2023, dated 2025).

Experiment [1] concerns SKBR3 (PI3Kα-Wild Type) cell line. The experiment in a line: HTRF phospho-AKT(S473) cell assay in SKBR3 cells. The experiment is classed as cell-based, human. The method, boiled down:
(§1)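 HTRF read-out of phospho-AKT(S473) in lysates gave IC50 values after 2 h compound exposure at 37° C. Dose series was 12 points at 1:3, topping at 5 μM for T47D and 10 μM for SKBR3. Only SKBR3 received 70 ng/ml PDGF-BB during the last 15 minutes.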
Background: TR-FRET usually uses a lanthanide donor and a delayed reading to cut background.

The subject of experiment [2] is T47D (PI3Kα-H1047R) cell line. Kind of experiment: HTRF phospho-AKT(S473) cell assay in T47D cells. It is filed as cell-based, human. The method, boiled down:
as §1

The mark [3] stands for this setting: Homo sapiens, SK-BR-3; HTRF phospho-AKT(S473), SKBR3 (PI3Kα-Wild Type) cells, 2 hours compound incubation, PDGF-BB stimulated.
The mark [4] stands for this setting: Homo sapiens; HTRF phospho-AKT(S473), T47D (PI3Kα-H1047R) cells, 2 hours compound incubation.
Setting [5] is: Homo sapiens, SK-BR-3; SKBR3 (PI3Kα-Wild Type) cells, HTRF phospho-AKT(S473), 2 hours compound incubation, PDGF-BB stimulated.
Setting [6] is: Homo sapiens; T47D (PI3Kα-H1047R) cells, HTRF phospho-AKT(S473), 2 hours compound incubation.

As usually defined, the IC50 is the concentration needed to halve the response being measured. For `Cc1cc([C@@H](C)Nc2ccc(Cl)nc2C(=O)NS(C)(=O)=O)c2nc([C@H]3[C@@H]4CN(c5ncc(Cl)cn5)C[C@@H]43)n(C)c(=O)c2c1` [Compound 825, 6-chloro-3-(((R)-1-(2-((1R,5S,6r)-3-(5-chloropyrimidin-2-yl)-3-azabicyclo[3.1.0]hexan-6-yl)-3,6-dimethyl-4-oxo-3,4-dihydroquinazolin-8-yl)ethyl)amino)-N-(methylsulfonyl) picolinamide], the IC50 is at least 5 µM in experiment [1] (setting [3]) and 1000 to 5000 nM in experiment [2] (setting [4]).

For the molecule `C[C@@H](Nc1ccc(Cl)nc1C(=O)NS(C)(=O)=O)c1cc(C2CC2)cc2c(=O)n(C)c(N3C[C@@H]4[C@H](C3)[C@H]4c3ccn(C)n3)nc12` [Compound 382, 6-chloro-3-(((R)-1-(6-cyclopropyl-3-methyl-2-((1R,5S,6R)-6-(1-methyl-1H-pyrazol-3-yl)-3-azabicyclo[3.1.0]hexan-3-yl)-4-oxo-3,4-dihydroquinazolin-8-yl)ethyl)amino)-N-(methylsulfonyl) picolinamide], the IC50 in experiment [1] (setting [5]) lay in the range of 1 to 5 µM; in experiment [2] (setting [6]) it was 250 to 500 nM.

With `COc1ncc(N2CCN(c3nc4c([C@@H](C)Nc5ccc(Cl)nc5C(=O)NS(C)(=O)=O)cc(C)cc4c(=O)n3C)CC2)cn1` [Compound 555, (R)-6-chloro-3-((1-(2-(4-(2-methoxypyrimidin-5-yl)piperazin-1-yl)-3,6-dimethyl-4-oxo-3,4-dihydroquinazolin-8-yl)ethyl)amino)-N-(methylsulfonyl) picolinamide], the IC50 is 1 to 5 µM in experiment [1] (setting [3]) and below 250 nM in experiment [2] (setting [4]).

Regarding `Cc1cc([C@@H](C)Nc2ccc(Cl)nc2C(=O)NS(C)(=O)=O)c2nc(N3CCC(c4ncnn4C(C)C)CC3)n(C)c(=O)c2c1` [Compound 719, (R)-6-chloro-3-((1-(2-(4-(1-isopropyl-1H-1,2,4-triazol-5-yl)piperidin-1-yl)-3,6-dimethyl-4-oxo-3,4-dihydroquinazolin-8-yl)ethyl)amino)-N-(methylsulfonyl) picolinamide], the IC50 was at least 5 µM in experiment [1] (setting [3]) and 250 to 500 nM in experiment [2] (setting [4]).

Regarding `Cc1cc([C@@H](C)Nc2ccc(Cl)nc2C(=O)NS(C)(=O)=O)c2nc(N3C[C@@H]4C[C@H]3C[C@@H]4c3ccn(C)n3)n(C)c(=O)c2c1` (relative stereo) [Compound 356, 6-chloro-3-(((R)-1-(3,6-dimethyl-2-((1R*,4S*,5R*)-5-(1-methyl-1H-pyrazol-3-yl)-2-azabicyclo[2.2.1]heptan-2-yl)-4-oxo-3,4-dihydroquinazolin-8-yl)ethyl)amino)-N-(methylsulfonyl) picolinamide], the IC50 in experiment [1] (setting [5]) was 1 to 5 µM; in experiment [2] (setting [6]), below 250 nM.

Regarding `Cc1cc([C@@H](C)Nc2ccc(Cl)nc2C(=O)NS(C)(=O)=O)c2nc(N3CCC(C)(c4cc[nH]n4)CC3)n(C)c(=O)c2c1` [Compound 552, (R)-6-chloro-3-((1-(3,6-dimethyl-2-(4-methyl-4-(1H-pyrazol-3-yl)piperidin-1-yl)-4-oxo-3,4-dihydroquinazolin-8-yl)ethyl)amino)-N-(methylsulfonyl) picolinamide], the IC50 in experiment [1] (setting [3]) was at least 5 µM; in experiment [2] (setting [4]), 250 to 500 nM.

Take `Cc1cc([C@@H](C)Nc2ccc(Cl)nc2C(=O)NS(C)(=O)=O)c2nc(N3CCO[C@H](c4cnn(C)c4)C3)n(C)c(=O)c2c1` (relative stereo) [Compound 313, 6-chloro-3-(((R)-1-(3,6-dimethyl-2-((R*)-2-(1-methyl-1H-pyrazol-4-yl)morpholino)-4-oxo-3,4-dihydroquinazolin-8-yl)ethyl)amino)-N-(methylsulfonyl) picolinamide]: the figures for the IC50 in experiment [1] (setting [5]) and in experiment [2] (setting [6]) were 1 to 5 µM and 250 to 500 nM, respectively.

As to `Cc1cc([C@@H](C)Nc2ccc(Cl)nc2C(=O)NS(C)(=O)=O)c2nc(N3C[C@@H]4[C@H](C3)[C@H]4c3cc(C)ncc3F)n(C)c(=O)c2c1` [Compound 495, 6-chloro-3-(((R)-1-(2-((1R,5S,6S)-6-(5-fluoro-2-methylpyridin-4-yl)-3-azabicyclo[3.1.0]hexan-3-yl)-3,6-dimethyl-4-oxo-3,4-dihydroquinazolin-8-yl)ethyl)amino)-N-(methylsulfonyl) picolinamide], the results for the IC50 in experiment [1] (setting [3]) and in experiment [2] (setting [4]) were 1 to 5 µM and 250 to 500 nM, respectively.
